{
  "source": "patent US8026282B2",
  "about": "“Phenoxyalkylcarboxylic acid derivatives in the treatment of irritable bowel syndrome” (Medicinova, Inc., priority 2004, dated 2011)",
  "key": {"IBS/ulcerative colitis": {"system": "IBS/ulcerative colitis", "test": "Example 9: patient with IBS/ulcerative colitis symptoms", "assay_type": "in vivo, human", "details": "750 mg tablets three times per day for at least two months; present-tense example", "protocol": "A person complains of symptoms associated with IBS/ulcerative colitis, including diarrhea with discharge of mucus and blood, cramping abdominal pain, and inflammation and edema of the mucous membrane with patches of ulceration. The patient is treated with tablets containing 750 mg of compound (1), three times per day, for at least two months. […] Similar positive results are observed for other patients complaining of the same or similar symptoms attributable to IBS or ulcerative colitis."}, "rat bladder": {"system": "rat bladder", "test": "Ovalbumin-sensitized rat model of inflammation-induced bladder hyperactivity (cystometry)", "assay_type": "in vivo, Sprague-Dawley rats", "details": "for NVC/minute: 60 minutes prior", "protocol": "Sprague-Dawley rats (n=50; […]) were utilized for this study. The animals were divided into 5 groups (n=10). The first group served as the control and the second group was sensitized with ovalbumin (OA). The third, fourth, and fifth groups were also sensitized as described but subjected to oral gavaging with Compound 1 prior to acute ovalbumin challenge.\nSensitization of the animals was accomplished with an intraperitoneal injection of a mixture of 1 mg OA and 100 mg aluminum hydroxide suspended in 1 mL of saline. Fourteen days later, these sensitized rats were anaesthetized with a subcutaneous injection of urethane (1.2 g/kg) for intravesical OA (10 mg/mL) administration and evaluation of bladder hyperactivity. The animals in group 1 received saline (control), group 2 animals received about 2 mL of OA (10 mg/mL OA in sterile saline) and animal groups 3-5 animals received oral 1 (10, 30, 50 mg/kg in gum acacia suspension) 60 minutes prior to acute OA challenge (2 mL of 10 mg/mL OA).\nAll animals were subjected to evaluation of bladder hyperactivity. Briefly, a 1 cm incision was made along the centerline of the lower ventral abdomen. The bladder was exteriorized, and catheterized by means of a polyethylene tube (PE 50, Clay Adams) inserted into the bladder dome and sutured in place using a 2-0 braided silk suture. The bladder was returned to the abdomen, with the catheter line escaping through the incision. The catheter was then connected to a pressure transducer (UFI, Morro Bay, Calif.) and in turn, connected to an infusion pump (Harvard Apparatus, MA). During the continuous filling bladder cystometry, the pressure was recorded with the transducer using the program LabVIEW (National Instruments, TX).\nFor cystometry (See, Chuang Y C, Chancellor M B, Seki S, Yoshimura N, Tyagi P, Huang L, Lavelle J P, De Groat W C and Fraser M O: Intravesical protamine sulfate and potassium chloride as a model for bladder hyperactivity. Urology (2003) 61:664-70), the bladder was first infused with warm 0.9% saline (37° C.) at 40 μL/min (2.4 mL/hr) and at least 20 minutes of stable voiding cycles were recorded during infusion. This process was followed by intravesical infusion of OA (10 mg/mL) and bladder contractions were recorded. Frequency of contractions (voids), inter-contractile interval (ICI), and non-voiding contractions (NVC) were calculated from these recordings."}},
  "data": [
    {"molecule": "CCCc1c(SCCCOc2ccc(C(C)=O)c(OCCCC(=O)O)c2CCC)ccc(C(C)=O)c1O", "note": "[Compound 1, 4-[6-acetyl-3-[3-(4-acetyl-3-hydroxy-2-propylphenylthio)propoxy]-2-propylphenoxy]butyric acid]", "values": [
      {"measurement": "symptoms of IBS/ulcerative colitis reported by patient", "setting": "IBS/ulcerative colitis", "result": "positive effects"},
      {"measurement": "NVC/minute", "setting": "rat bladder; Group 3: OA (10 mg/mL) infusion after oral 10 mg/kg, n = 10, NS compared to Group 2 (OA alone 0.9400 ± 0.2473)", "result": "0.4700 ± 0.1221", "unit": "NVC/minute"},
      {"measurement": "NVC/minute", "setting": "rat bladder; Group 4: OA (10 mg/mL) infusion after oral 30 mg/kg, n = 9, P < 0.05 compared to Group 2", "result": "0.3444 ± 0.06894", "unit": "NVC/minute"},
      {"measurement": "NVC/minute", "setting": "rat bladder; Group 5: OA (10 mg/mL) infusion after oral 50 mg/kg, n = 9, P < 0.05 compared to Group 2", "result": "0.1778 ± 0.08296", "unit": "NVC/minute"},
      {"measurement": "voiding frequency", "setting": "rat bladder; control (group 1) versus treatment groups (2-5)", "result": "No significant differences"},
      {"measurement": "OA-induced changes in NVC and ICI", "setting": "rat bladder; pre-treatment, oral 10, 30, 50 mg/kg", "result": "dose-dependent inhibition"},
      {"measurement": "protection against OA-induced changes (increase in NVC, decrease in ICI)", "setting": "rat bladder; pre-treatment, preferably at 30 and 50 mg/kg", "result": "significant protection"}
    ]}
  ]
}
